We go through two compounds from paper PMC7905942 (ACS Omega, 2021).

Experiment [1] concerns HDAC (Hela cell nuclear extract). In kind it is biochemical. Particulars: HDAC inhibitory activity and cytotoxicity together.
Experiment [2] deals with PC3 (prostate cancer) cells. Description: SRB cytotoxicity assay, PC3. Particulars: Homo sapiens, 48 h, read-out: Cytotoxicity IC50, PC3. In kind it is cell-based. Background: In SRB staining, fixed cells bind dye roughly in proportion to their protein.
Experiment [3] concerns NCI-H23 (lung cancer) cells. Nature of the experiment: SRB cytotoxicity assay, NCI-H23. In kind it is cell-based. The note with it: Homo sapiens, NCI-H23, 48 h, read-out: Cytotoxicity IC50, NCI-H23.
The next experiment has as its target T1, HDAC6 (Homo sapiens, UniProt Q9UBN7).
T1 sequence (Q9UBN7 1-1215): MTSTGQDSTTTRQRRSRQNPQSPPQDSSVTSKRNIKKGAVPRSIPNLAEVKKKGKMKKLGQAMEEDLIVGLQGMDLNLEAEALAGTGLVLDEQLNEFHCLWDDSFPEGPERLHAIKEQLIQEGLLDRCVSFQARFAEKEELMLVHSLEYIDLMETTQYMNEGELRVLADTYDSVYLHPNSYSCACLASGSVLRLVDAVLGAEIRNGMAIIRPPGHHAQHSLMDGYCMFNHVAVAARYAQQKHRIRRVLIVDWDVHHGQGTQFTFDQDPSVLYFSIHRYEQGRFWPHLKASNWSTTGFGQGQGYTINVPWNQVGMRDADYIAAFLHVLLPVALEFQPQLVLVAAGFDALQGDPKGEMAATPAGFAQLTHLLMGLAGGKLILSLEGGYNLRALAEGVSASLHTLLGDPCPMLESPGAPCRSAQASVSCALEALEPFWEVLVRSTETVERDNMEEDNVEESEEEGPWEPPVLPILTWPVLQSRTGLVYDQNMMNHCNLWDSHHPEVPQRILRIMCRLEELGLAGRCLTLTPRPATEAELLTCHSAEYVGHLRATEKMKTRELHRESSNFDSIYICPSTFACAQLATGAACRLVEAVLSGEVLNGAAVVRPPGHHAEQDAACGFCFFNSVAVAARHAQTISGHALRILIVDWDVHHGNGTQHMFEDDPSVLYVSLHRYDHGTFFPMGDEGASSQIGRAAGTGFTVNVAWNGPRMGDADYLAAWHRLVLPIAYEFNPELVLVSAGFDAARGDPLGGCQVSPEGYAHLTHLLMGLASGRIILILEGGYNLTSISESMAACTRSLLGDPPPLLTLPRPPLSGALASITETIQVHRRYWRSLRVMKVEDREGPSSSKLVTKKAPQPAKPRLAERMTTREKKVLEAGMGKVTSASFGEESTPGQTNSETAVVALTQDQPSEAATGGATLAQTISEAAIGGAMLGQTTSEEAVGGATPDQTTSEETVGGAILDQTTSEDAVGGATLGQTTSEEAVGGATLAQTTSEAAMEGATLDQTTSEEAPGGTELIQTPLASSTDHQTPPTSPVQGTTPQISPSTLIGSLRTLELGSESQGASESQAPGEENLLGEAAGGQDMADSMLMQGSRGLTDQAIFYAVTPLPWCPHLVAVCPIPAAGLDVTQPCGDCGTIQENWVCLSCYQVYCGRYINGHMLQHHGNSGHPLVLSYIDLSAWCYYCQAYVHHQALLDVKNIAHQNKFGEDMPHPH
Nature of the experiment: HDAC6 enzyme assay. It counts as biochemical.

Experiment [4] deals with SW620 human colon cancer cells. Nature of the experiment: Cell cycle analysis by flow cytometry. It counts as cell-based. The note with it: compounds 10 μM, SAHA 1 μM, 24 h, vehicle 6.29%. In general terms: In flow cytometry, cells or beads pass a laser one at a time.
In experiment [5] the test system is SW620 human colon cancer cells. Description: Annexin V-FITC/PI dual staining apoptosis assay. It counts as cell-based. Particulars: 10 μM, 24 h.
Experiment [6] deals with SW620, PC3 and NCI-H23 cancer cell lines. Nature of the experiment: SRB cytotoxicity, range over three human cancer cell lines. In kind it is cell-based. The note with it: read-out: Cytotoxicity IC50 values (range over cell lines).
Experiment [7] has as its system SW620 (colon cancer) cells. Description: SRB cytotoxicity assay, SW620. It counts as cell-based. Particulars: Homo sapiens, SW-620, 48 h, read-out: Cytotoxicity IC50, SW620.

The IC50 is the point on the concentration scale where inhibition reaches its midpoint.

Each structure is given as a SMILES string.

On to `O=C(/C=C/c1ccc2c(=O)n(Cc3ccc(Cl)cc3)cnc2c1)NO` [Compound 10l, (E)-3-(3-(4-Chlorobenzyl)-4-oxo-3,4-dihydroquinazolin-7-yl)-N-hydroxyacrylamide], for which, in experiment [1], the “fold more potent than SAHA” value is given as 2- to 3 fold. Moreover, the IC50 in experiment [2] is 767 ± 25 nM; in experiment [3], 899 ± 45 nM; on HDAC6, 33 nM; in experiment [6], 671 to 1210 nM. Further, the “cells in G2/M phase” value in experiment [4] is listed as 26.70%. Further, the “induction of apoptosis (in words)” value in experiment [5] is “substantially induced both early and late apoptosis”.

Regarding `Cc1ccc(Cn2cnc3cc(/C=C/C(=O)NO)ccc3c2=O)cc1` [Compound 10m, (E)-N-Hydroxy-3-(3-(4-methylbenzyl)-4-oxo-3,4-dihydroquinazolin-7-yl)acrylamide], in experiment [1], the “fold more potent than SAHA” value is on record as 2- to 3 fold. Besides, the IC50 is 898 ± 47 nM in experiment [7]; 1210 ± 50 nM in experiment [2]; 769 ± 9 nM in experiment [3]; 47 ± 1 nM against HDAC6; 671 to 1210 nM in experiment [6]. The “cells in G2/M phase” value in experiment [4] is on record as 30.11%. In experiment [5], the “induction of apoptosis (in words)” value is “substantially induced both early and late apoptosis”.
